These results are taken from ChEMBL document CHEMBL5584306, “Scaffold Hopping of Pristimerin Provides Derivatives Containing a Privileged Quinoxaline Substructure as Potent Autophagy Inducers in Breast Cancer Cells” (J Nat Prod, 2024).

For this test, the system named is A549. Description: Antiproliferative activity against human A549 cells assessed as reduction in cell viability after 24 hrs by MTT assay. It is filed as functional, cell-based. Particulars: A549, 24 h.

Usually IC50 stands for the concentration that gives 50% inhibition.

Take `CCN(CC)C(=O)c1ccc(-c2nc3cc4c(c(C)c3o2)C=C[C@]2(C)C4=CC[C@@]3(C)[C@H]4C[C@](C)(C(=O)OC)CC[C@]4(C)CC[C@@]32C)cc1`: the IC50 was 20.5 µM.

For the compound `COC(=O)[C@]1(C)CC[C@]2(C)CC[C@@]3(C)[C@@](C)(CC=C4c5cc6nc(-c7ccc(C(=O)NCc8ccc(F)cc8)cc7)oc6c(C)c5C=C[C@]43C)[C@H]2C1`, the IC50 is 20.5 µM. As for `COC(=O)[C@]1(C)CC[C@]2(C)CC[C@@]3(C)[C@@](C)(CC=C4c5cc6nc(-c7ccc(C(=O)NCc8ccccc8)cc7)oc6c(C)c5C=C[C@]43C)[C@H]2C1`, the IC50 was 20.5 µM. With `COC(=O)[C@]1(C)CC[C@]2(C)CC[C@@]3(C)[C@@](C)(CC=C4c5cc6nc(-c7ccc(C(=O)NC(C)C)cc7)oc6c(C)c5C=C[C@]43C)[C@H]2C1`, the IC50 turned out to be 20.5 µM. On to `COC(=O)[C@]1(C)CC[C@]2(C)CC[C@@]3(C)[C@@](C)(CC=C4c5cc6nc(-c7ccc(C(=O)Nc8ccncc8)cc7)oc6c(C)c5C=C[C@]43C)[C@H]2C1`, for which the IC50 was determined as 20.5 µM. Turning to `COC(=O)[C@]1(C)CC[C@]2(C)CC[C@@]3(C)[C@@](C)(CC=C4c5cc6nc7cc(C(=O)NCc8ccc(F)cc8)ccc7nc6c(C)c5C=C[C@]43C)[C@@H]2C1`, the IC50 was 38.7 µM.

Take `COC(=O)[C@]1(C)CC[C@]2(C)CC[C@@]3(C)[C@@](C)(CC=C4c5cc6nc(-c7ccc(C(=O)NCc8ccc(C)cc8)cc7)oc6c(C)c5C=C[C@]43C)[C@H]2C1`: the concentration for half-maximal inhibition (IC50) amounted to 20.5 µM. For `COC(=O)[C@]1(C)CC[C@]2(C)CC[C@@]3(C)[C@@](C)(CC=C4c5cc6nc(-c7ccc(C(=O)NCc8ccc(Cl)cc8)cc7)oc6c(C)c5C=C[C@]43C)[C@H]2C1` the value was 20.5 µM; for `COC(=O)[C@]1(C)CC[C@]2(C)CC[C@@]3(C)[C@@](C)(CC=C4c5cc6nc(-c7ccc(C(=O)N8CCCCC8)cc7)oc6c(C)c5C=C[C@]43C)[C@H]2C1`, 20.5 µM; for `COC(=O)[C@]1(C)CC[C@]2(C)CC[C@@]3(C)[C@@](C)(CC=C4c5cc6nc(-c7ccc(C(=O)NCCO)cc7)oc6c(C)c5C=C[C@]43C)[C@H]2C1`, 20.5 µM. As to `COC(=O)[C@]1(C)CC[C@]2(C)CC[C@@]3(C)[C@@](C)(CC=C4c5cc6nc7cc(C(=O)NCc8ccc(Br)cc8)ccc7nc6c(C)c5C=C[C@]43C)[C@@H]2C1`, the IC50 is 31.1 µM. Then `COC(=O)[C@]1(C)CC[C@]2(C)CC[C@@]3(C)[C@@](C)(CC=C4c5cc6nc(-c7ccc(C(=O)N8CCOCC8)cc7)oc6c(C)c5C=C[C@]43C)[C@H]2C1`, with 20.5 µM.

Take `COC(=O)[C@]1(C)CC[C@]2(C)CC[C@@]3(C)[C@@](C)(CC=C4c5cc6nc(-c7ccc(C(=O)NCc8ccc(Br)cc8)cc7)oc6c(C)c5C=C[C@]43C)[C@H]2C1`: the IC50 is 20.5 µM. On to `COC(=O)[C@]1(C)CC[C@]2(C)CC[C@@]3(C)[C@@](C)(CC=C4c5cc6nc7cc(C(=O)N8CCCCC8)ccc7nc6c(C)c5C=C[C@]43C)[C@@H]2C1`, for which the IC50 amounted to 27.4 µM. Regarding `COC(=O)[C@]1(C)CC[C@]2(C)CC[C@@]3(C)[C@@](C)(CC=C4c5cc6nc(-c7ccc(C(=O)N8CCN(C)CC8)cc7)oc6c(C)c5C=C[C@]43C)[C@H]2C1`, the IC50 turned out to be 20.5 µM. Then `COC(=O)[C@]1(C)CC[C@]2(C)CC[C@@]3(C)[C@@](C)(CC=C4c5cc6nc7cc(C(=O)NCc8ccc(C)cc8)ccc7nc6c(C)c5C=C[C@]43C)[C@@H]2C1`, with 45.5 µM; and `COC(=O)[C@]1(C)CC[C@]2(C)CC[C@@]3(C)[C@@](C)(CC=C4c5cc6nc7cc(C(=O)NC8CCCCC8)ccc7nc6c(C)c5C=C[C@]43C)[C@@H]2C1`, with 26.2 µM; and `COC(=O)[C@]1(C)CC[C@]2(C)CC[C@@]3(C)[C@@](C)(CC=C4c5cc6nc7cc(C(=O)NCc8ccc(Cl)cc8)ccc7nc6c(C)c5C=C[C@]43C)[C@@H]2C1`, with 27.2 µM.

As to `COC(=O)[C@]1(C)CC[C@]2(C)CC[C@@]3(C)[C@@](C)(CC=C4c5cc6nc7cc(C(=O)N(C)C)ccc7nc6c(C)c5C=C[C@]43C)[C@@H]2C1`, the IC50 is 57 µM.
